Where no end group is shown, it is not given here. [ ]: non-standard residue; d: D form. The star is where a group is joined. Hexanoyl = CCCCCC(=O)*; Aib = CC(C)(N)C(=O)O
Key:
[1] = Rat serum stability studies (remaining active peptide by DiscoveRx cAMP on CHO-VPAC2 cells); type: in vitro ADME
In short: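 EC50 from a DiscoveRx cAMP read-out on CHO-VPAC2 cells indexes how much peptide stays active after 18 h in rat serum at 37° C without aprotinin, against an aprotinin-protected 4° C aliquot.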

human VPAC2 [2] = molecular target: T1, human VPAC2 (Homo sapiens, UniProt P41587); assay: Filter binding assay, membranes of stable VPAC2 cell line, 125I-labeled VIP tracer (Table 2); details: read-out: Human VPAC2 Receptor Binding
T1 construct: expressed in transfected cells
T1 sequence (P41587 24-438): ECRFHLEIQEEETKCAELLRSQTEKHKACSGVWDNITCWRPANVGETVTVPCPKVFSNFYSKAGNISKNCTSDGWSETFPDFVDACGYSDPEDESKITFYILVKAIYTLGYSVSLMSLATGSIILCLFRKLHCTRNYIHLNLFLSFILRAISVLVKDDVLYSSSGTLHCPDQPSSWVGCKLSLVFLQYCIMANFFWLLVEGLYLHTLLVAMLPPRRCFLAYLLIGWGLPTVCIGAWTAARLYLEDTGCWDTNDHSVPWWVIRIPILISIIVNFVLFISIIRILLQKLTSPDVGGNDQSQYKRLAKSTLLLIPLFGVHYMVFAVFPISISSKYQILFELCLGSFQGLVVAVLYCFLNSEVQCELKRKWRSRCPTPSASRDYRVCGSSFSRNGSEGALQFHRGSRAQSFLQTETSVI
In short: (§1)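 Radioligand displacement was measured with 2.5 μg membrane protein per well and roughly 40000 cpm of iodinated tracer. After a 1-hour incubation, bound and free label were separated on BSA-blocked glass-fibre filters and quantified by scintillation.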

human PAC1 = molecular target: T2, human PAC1 (Homo sapiens, UniProt P41586); assay: Filter binding assay, membranes of cells transiently transfected with human PAC1, 125I-labeled PACAP-27 tracer (Table 2); parameters: expressed in transfected cells; details: read-out: Human PAC1 Receptor Binding
T2 sequence (P41586 21-468): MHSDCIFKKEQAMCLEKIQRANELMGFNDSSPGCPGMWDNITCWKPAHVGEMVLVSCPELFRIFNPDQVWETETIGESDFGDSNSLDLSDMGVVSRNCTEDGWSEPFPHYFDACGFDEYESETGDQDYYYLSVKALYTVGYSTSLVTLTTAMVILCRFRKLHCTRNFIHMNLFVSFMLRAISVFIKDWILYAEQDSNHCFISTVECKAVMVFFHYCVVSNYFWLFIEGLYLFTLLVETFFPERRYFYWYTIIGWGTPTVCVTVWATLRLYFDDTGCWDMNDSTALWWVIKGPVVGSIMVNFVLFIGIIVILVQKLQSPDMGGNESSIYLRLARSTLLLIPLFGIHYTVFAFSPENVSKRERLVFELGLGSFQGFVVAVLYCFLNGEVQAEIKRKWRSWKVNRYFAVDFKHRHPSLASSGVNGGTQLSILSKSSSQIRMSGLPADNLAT
In short: as §1

human VPAC2 [3] = molecular target: T1, human VPAC2; assay: Alpha screen cAMP in vitro potency, human VPAC2 receptor; type: cell-based; details: cAMP generation; single result from two analyses performed in a single run; read-out: Human VPAC2 Receptor: Alpha Screen EC50
In short: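 Under reduced light, acceptor beads accompany the stimuli during a 60-minute incubation of cells in stimulation buffer (50,000 per well point). Donor beads go in with lysis buffer for a further 60–120 minutes, and the resulting AlphaScreen signal indicates cAMP levels.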

human VPAC1 = molecular target: T3, human VPAC1 (Homo sapiens, UniProt P32241); assay: Filter binding assay, membranes of cells transiently transfected with human VPAC1, 125I-labeled VIP tracer (Table 2); parameters: expressed in transfected cells; details: read-out: Human VPAC1 Receptor Binding
T3 sequence (P32241 31-457): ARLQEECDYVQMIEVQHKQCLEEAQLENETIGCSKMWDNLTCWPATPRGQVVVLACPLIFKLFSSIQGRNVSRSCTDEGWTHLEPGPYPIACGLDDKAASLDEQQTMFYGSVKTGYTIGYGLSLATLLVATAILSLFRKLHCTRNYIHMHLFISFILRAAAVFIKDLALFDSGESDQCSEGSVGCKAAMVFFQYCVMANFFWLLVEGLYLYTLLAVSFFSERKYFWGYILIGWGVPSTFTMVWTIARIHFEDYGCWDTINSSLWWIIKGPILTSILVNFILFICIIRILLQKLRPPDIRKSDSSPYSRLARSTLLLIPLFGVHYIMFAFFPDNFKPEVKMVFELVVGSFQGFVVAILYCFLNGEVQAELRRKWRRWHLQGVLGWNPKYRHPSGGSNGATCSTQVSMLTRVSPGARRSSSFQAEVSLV
In short: as §1

rat VPAC2 receptor [4] = molecular target: T4, rat VPAC2 receptor (Rattus norvegicus, UniProt P35000); assay: DiscoveRx in vitro potency, CHO-PO cells transiently transfected with rat VPAC 2 receptor DNA; type: cell-based; parameters: expressed in transfected cells; host or cells: CHO-PO, transient
T4 sequence (P35000 23-437): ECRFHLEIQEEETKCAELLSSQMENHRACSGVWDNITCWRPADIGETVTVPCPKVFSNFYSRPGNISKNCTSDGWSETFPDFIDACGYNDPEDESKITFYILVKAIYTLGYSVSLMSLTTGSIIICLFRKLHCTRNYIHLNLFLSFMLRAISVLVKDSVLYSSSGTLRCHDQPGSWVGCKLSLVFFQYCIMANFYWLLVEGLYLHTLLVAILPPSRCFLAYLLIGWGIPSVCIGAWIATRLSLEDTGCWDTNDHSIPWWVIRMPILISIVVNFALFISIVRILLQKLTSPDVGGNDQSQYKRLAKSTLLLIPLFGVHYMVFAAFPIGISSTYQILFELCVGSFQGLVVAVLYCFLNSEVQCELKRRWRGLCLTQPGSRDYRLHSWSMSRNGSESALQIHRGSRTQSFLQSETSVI
Experimental: (§2) Also, the cells are washed twice. […] The stimuli are present for 30 minutes. Then, the assay buffer is gently removed.

rat VPAC1 receptor [5] = molecular target: T5, rat VPAC1 receptor (Rattus norvegicus, UniProt P30083); assay: DiscoveRx in vitro potency, CHO-PO cells transiently transfected with rat VPAC 1 receptor DNA; type: cell-based; parameters: expressed in transfected cells; host or cells: CHO-PO, transient
T5 sequence (P30083 31-459): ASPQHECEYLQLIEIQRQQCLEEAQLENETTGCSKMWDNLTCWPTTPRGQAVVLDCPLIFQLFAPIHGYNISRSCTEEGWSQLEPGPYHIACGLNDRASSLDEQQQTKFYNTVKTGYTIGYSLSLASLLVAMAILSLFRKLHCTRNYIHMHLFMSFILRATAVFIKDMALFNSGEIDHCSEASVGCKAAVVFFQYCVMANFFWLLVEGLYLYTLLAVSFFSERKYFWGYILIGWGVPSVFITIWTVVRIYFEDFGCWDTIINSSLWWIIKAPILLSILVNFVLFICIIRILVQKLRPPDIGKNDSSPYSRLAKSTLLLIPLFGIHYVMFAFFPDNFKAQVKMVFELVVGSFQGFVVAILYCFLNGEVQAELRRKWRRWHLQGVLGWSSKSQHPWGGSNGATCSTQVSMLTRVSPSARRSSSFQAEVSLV
Experimental: as §2

rat VPAC2 receptor [6] = molecular target: T6, rat VPAC2 receptor (rat, UniProt P35000 23-437); assay: IC50 on rat VPAC1 over IC50 on rat VPAC2
T6 construct: whole, on cells; transfected CHO-PO cells in DiscoveRx
T6 sequence (looked up): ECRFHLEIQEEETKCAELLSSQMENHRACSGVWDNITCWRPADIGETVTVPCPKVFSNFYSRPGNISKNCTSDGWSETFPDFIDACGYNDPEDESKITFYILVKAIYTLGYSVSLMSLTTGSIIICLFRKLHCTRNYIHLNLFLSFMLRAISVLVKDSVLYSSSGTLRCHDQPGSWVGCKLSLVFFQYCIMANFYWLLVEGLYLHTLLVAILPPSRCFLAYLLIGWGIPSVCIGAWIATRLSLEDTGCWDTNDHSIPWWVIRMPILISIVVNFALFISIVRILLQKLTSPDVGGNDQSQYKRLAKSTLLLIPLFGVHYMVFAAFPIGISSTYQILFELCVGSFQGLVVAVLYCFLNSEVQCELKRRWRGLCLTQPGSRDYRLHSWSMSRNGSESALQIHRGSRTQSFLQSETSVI
Excerpt: Each assay is done in duplicate and performed on two different membrane preparations.
TABLE 3 Binding data are expressed as the IC₅₀ values of tracer inhibition. A different reference compound is used as the tracer for the VPAC1 receptor and for the VPAC2 receptor. The last column represents the ratio between the IC₅₀ values on VPAC1 and VPAC2 receptor and is, thus, an index of selectivity for a receptor subtype. […] The values are given with the standard error.

rat VPAC2 receptor [7] = molecular target: T6, rat VPAC2 receptor; assay: cell-based or functional assay
rat VPAC1 receptor [8] = molecular target: T7, rat VPAC1 receptor (rat, UniProt P30083 31-459); assay: cell-based or functional assay
T7 sequence (looked up): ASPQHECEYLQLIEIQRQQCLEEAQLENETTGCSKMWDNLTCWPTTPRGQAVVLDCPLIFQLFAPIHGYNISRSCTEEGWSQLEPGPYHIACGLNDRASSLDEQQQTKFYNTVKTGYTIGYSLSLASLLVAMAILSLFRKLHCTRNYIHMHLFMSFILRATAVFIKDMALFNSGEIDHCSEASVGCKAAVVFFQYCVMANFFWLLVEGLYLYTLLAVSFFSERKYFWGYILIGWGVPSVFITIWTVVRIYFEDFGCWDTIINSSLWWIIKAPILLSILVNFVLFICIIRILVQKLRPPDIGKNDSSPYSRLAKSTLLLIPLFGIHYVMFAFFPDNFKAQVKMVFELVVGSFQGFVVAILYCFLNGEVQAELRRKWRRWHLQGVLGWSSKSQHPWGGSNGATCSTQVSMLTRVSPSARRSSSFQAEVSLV

rat VPAC2 receptor [9] = molecular target: T6, rat VPAC2 receptor; assay: cell-based or functional assay; remark: listed apart in the source
rat VPAC1 receptor [10] = molecular target: T7, rat VPAC1 receptor; assay: cell-based or functional assay; remark: listed apart in the source
human VPAC2 receptor = molecular target: T8, human VPAC2 receptor (human, UniProt P41587 24-438); assay: cell-based or functional assay
T8 sequence (looked up): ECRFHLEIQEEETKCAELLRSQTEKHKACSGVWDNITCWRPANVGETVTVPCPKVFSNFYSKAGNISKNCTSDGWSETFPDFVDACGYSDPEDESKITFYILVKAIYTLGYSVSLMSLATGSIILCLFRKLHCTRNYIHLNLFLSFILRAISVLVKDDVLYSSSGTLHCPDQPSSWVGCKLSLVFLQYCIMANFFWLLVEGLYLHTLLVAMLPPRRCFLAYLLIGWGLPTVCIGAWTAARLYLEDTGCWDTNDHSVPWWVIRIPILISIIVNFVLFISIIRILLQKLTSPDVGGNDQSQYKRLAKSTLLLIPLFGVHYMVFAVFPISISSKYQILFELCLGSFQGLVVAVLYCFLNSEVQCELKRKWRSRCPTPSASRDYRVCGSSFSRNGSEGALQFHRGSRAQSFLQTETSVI

In the case of “Hexanoyl-HSDAVFTDNYTRLR[Aib]QIAA[Aib]KYLQSIKNKRYGGPSSGAPPPS [Agonist P322]”, the “Rat Serum Stability (Estimated purity in % after 72 hours)” value [1] is reported as 1.3%, the “Rat Serum Stability (estimated purity in % after 18 hours)” value [1] is reported as 42.18% and the IC50 (human VPAC2 [2]) is reported as 0.4 nM. The IC50 (human PAC1) was > 25000 nM, the EC50 (human VPAC2 [3]) was 0.22 nM and the IC50 (human VPAC1) was > 3000 nM. It also gave an EC50 (rat VPAC2 receptor [4]) of 0.04 nM and an EC50 (rat VPAC1 receptor [5]) of 0.5 nM.

In the case of “Hexanoyl-HSDAVFTDNYTRLR[Aib]QLAAK[Aib]YLQSIKNKRYGGPSSGAPPPS [Agonist P284]”, the “Rat Serum Stability (estimated purity in % after 18 hours)” value [1] is reported as 27.89%, the IC50 (human VPAC2 [2]) is reported as 0.38 nM and the IC50 (human PAC1) is reported as > 25000 nM. The EC50 (human VPAC2 [3]) was 0.18 nM, the IC50 (human VPAC1) was > 3000 nM and the EC50 (rat VPAC2 receptor [4]) was 0.07 nM. It also gave an EC50 (rat VPAC1 receptor [5]) of 0.44 nM.

For Hexanoyl-HSDAVFTDNYTRLR[Aib]QVAA[Aib]KYLQSIKNKRYGGPSSGAPPPS (ends and bridges not checked) [P261], the “VPAC1/VPAC2 (ratio of IC50 values)” value (rat VPAC2 receptor [6]) was 363, the “EC50 cAMP, DiscoveRx” value (rat VPAC2 receptor [7]) was 0.04 nM and the “EC50 cAMP, DiscoveRx” value (rat VPAC1 receptor [8]) was 0.35 nM. For the same molecule, the “VPAC1/VPAC2 (EC50 ratio)” value (rat VPAC2 receptor [9]) was 200, the cAMP max (rat VPAC2 receptor [9]) was 78.5 and the cAMP max (rat VPAC1 receptor [10]) was 126. For the same molecule, the “EC50 cAMP, Alpha Screen” value (human VPAC2 receptor) was 0.09 nM.

— US20080026996A1, “Selective Vpac2 Receptor Reptide Agonists” (ELI LILLY AND COMPANY, priority 2004, published 2008)
